Measurements taken from US4753932A, “Novel 10-substituted steroids” (Roussel Uclaf, priority 1985, dated 1988).
Read-outs that look alike come from different tables or passages of the source.

Experiments:
[1] = target: T1, Progestogen receptor of rabbit uterus (Oryctolagus cuniculus, UniProt P06186); test: Progestogen receptor of rabbit uterus: relative liaison affinity (RLA), displacement of tritiated Product R; type: binding; settings: for relative liaison affinity (RLA), Progestogen receptor: vs tritiated Product R; for activity for the progestogen receptor (in words): conclusion
T1 construct: Their uterus were removed, weighed and homogenized at 0° C; from tissue; host or cells: 105,000 g supernatant (cytosol) of uterus from estradiol-treated impuberal rabbits
T1 sequence (P06186 1-930): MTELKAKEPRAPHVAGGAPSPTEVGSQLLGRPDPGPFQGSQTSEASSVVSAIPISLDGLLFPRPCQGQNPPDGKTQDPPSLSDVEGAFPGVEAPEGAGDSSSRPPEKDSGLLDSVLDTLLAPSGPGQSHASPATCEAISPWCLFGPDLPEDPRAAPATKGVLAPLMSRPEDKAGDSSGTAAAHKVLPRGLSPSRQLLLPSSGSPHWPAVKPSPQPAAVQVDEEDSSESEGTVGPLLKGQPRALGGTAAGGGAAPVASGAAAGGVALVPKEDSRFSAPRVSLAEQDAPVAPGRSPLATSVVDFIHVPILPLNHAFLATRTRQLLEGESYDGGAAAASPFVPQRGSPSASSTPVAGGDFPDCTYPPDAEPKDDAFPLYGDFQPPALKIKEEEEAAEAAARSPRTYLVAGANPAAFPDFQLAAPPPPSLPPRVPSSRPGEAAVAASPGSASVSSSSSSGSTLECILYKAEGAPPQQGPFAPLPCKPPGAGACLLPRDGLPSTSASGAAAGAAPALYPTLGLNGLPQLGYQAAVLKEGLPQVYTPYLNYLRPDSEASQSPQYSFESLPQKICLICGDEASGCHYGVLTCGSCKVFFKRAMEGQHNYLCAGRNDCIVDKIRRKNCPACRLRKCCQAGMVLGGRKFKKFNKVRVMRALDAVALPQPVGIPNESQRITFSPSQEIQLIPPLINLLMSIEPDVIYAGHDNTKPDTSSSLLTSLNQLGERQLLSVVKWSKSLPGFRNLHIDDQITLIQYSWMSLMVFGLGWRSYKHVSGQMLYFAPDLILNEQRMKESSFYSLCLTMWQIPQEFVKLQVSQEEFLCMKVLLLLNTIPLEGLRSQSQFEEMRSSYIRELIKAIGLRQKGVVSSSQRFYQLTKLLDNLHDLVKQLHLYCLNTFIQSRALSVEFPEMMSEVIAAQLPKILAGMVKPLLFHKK
Protocol: (1) Study of the activity on the hormone receptors
Progestogen receptor of rabbit uterus
Impuberal rabbits of about 1 kg received a cutaneous application of […] of estradiol and 5 days after this treatment, the animals were killed. Their uterus were removed, weighed and homogenized at 0° C. using a Potter teflon-glass in a TS buffered solution (Tris 10 mM, saccharose 0.25M, HCl pH 7.4) (1 g of tissue for 50 ml of TS). The homogenate was then ultracentrifuged at 105,000 g for 90 minutes at 0° C. Aliquots of the supernatant so obtained were incubated at 0° C. for a time t, with a constant concentration (T) of Product R tritiated (17,21-dimethyl-19-nor-Δ^4,9 -pregnadiene-3,20-dione) in the presence of increasing concentrations (0-2,500 10^-9 M) either of R cold, or of cold progesterone, or of the cold product under test. The concentration of tritiated R bonded (B) was then measured in each incubate by the technique of adsorption to dextran-carbon.
(§1) Calculation of the relative liaison affinity
(§2) The calculation of the relative liaison affinity (RLA) was identical for all the receptors. The two following curves were traced: the percentage of tritiated hormone bonded B as a function of the logarithm of the concentration of the cold reference hormone, and B/T as a function of the logarithm of the concentration of the cold product under test. The straight line was determined of the equation [formula] (B/T) max=percentage of tritiated hormone bonded for an incubation of this tritiated hormone at the concentration (T).
(§3) (B/T) min.=percentage of tritiated hormone bonded for an incubation of the tritiated hormone at the concentration (T) in the presence of a great excess of cold hormone (2500.10^-9 M).
(§4) The intersections of the straight line I50 and of the curves enabled the concentrations of the cold reference hormone (CH) and the cold product under test (CX) to be evaluated which inhibit by 50% the bonding of the tritiated hormone on the receptor.
The relative liaison affinity (RLA) of the product under test was determined by the equation [formula] and the following results were obtained: […]

[2] = target: T2, Glucocorticoid receptor of rat thymus (Rattus norvegicus, UniProt P06536); test: Glucocorticoid receptor of rat thymus: relative liaison affinity (RLA), displacement of tritiated dexamethasone; type: binding, Male Sprague-Dawley EOPS rats; settings: for relative liaison affinity (RLA), Glucocorticoid receptor: vs tritiated dexamethasone; for affinity for the glucocorticoid receptors (in words): conclusion
T2 construct: Their thymus was removed and homogenized at 0° C; from tissue; host or cells: 105,000 g supernatant (cytosol) of thymus from adrenalectomized male Sprague-Dawley rats
T2 sequence (P06536 1-795): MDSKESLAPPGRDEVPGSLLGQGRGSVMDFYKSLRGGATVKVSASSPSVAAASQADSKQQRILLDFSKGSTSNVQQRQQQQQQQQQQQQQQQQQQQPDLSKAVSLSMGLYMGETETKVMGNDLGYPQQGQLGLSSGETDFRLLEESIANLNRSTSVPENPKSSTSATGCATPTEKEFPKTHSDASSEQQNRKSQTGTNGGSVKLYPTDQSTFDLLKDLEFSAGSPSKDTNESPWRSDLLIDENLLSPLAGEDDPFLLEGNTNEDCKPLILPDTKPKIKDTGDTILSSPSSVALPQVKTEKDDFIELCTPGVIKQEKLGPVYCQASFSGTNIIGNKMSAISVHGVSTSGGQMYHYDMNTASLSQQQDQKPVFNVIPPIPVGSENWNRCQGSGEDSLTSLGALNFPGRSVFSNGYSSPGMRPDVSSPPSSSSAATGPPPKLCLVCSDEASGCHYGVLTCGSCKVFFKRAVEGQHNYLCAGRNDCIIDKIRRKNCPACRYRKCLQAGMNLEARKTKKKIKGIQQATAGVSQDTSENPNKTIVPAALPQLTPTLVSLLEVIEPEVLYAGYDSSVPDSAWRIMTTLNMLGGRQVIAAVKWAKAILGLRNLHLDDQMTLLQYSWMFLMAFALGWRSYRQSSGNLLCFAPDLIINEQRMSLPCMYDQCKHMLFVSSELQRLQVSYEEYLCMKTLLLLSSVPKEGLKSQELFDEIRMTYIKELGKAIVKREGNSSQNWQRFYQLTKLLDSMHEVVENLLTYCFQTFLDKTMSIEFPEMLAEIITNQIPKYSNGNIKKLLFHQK
Protocol: Glucocorticoid receptor of rat thymus:
Their thymus was removed and homogenized at 0° C. in a buffer Tris 10 mM saccharose 0.25M, dithiotreitol 2 mM, HCl pH 7.4, using a Potter polytetrafluoroethylene-glass (1 g of tissue for 10 ml of TS). The homogenate was then ultracentrifuged at 105,000 g for 90 minutes at 0° C. Aliquots of the supernatant so obtained were incubated at 0° C. for a time (t) with a constant concentration (T) of tritiated dexamethasone in the presence of increasing concentrations (0-2,500.10^-9 M) either of cold dexamethasone, or of the cold product under test. The concentration of tritiated dexamethasone bonded (B) was then measured in each incubate by the technique of adsorption to dextran-carbon.
as §1, §2, §3, §4

[3] = test system: Thymocytes of suprarenalectomized rats; test: Anti-glucocorticoid activity: inhibition of the effect of dexamethasone on incorporation of tritiated uridine in thymocytes; type: cell-based; settings: for inhibition at 1 µM / inhibition at 0.1 µM / inhibition at 0.01 µM: Thymocyte, read-out: % inhibition of the effect of Dexamethasone
Protocol: (II). Anti-glucocorticoid activity
The technique utilized envolved from the method described by Dausse et al in "Molecular Pharmacology", Vol. 13, p. 948-955 (1977) ("the relationship between glucocorticoid structure and effects upon Thymocytes") for the thymocytes of mice. Thymocytes of suprarenalectomized rats were incubated at 37° C. for 3 hours in a nutritive medium containing 5.10^-8 M of dexamethasone in the presence or not of a product under study at different concentrations. Tritiated uridine was added and the incubation was continued for one hour. The incubates were cooled, then treated with a 5% solution of trichloroacetic acid, filtered on Whatman paper GF/A, and washed three times with a 5% solutioh of trichloroacetic acid. The radio-activity retained by the filter was determined.

[4] = 5.10^-8 M dexamethasone, rat thymocytes
[5] = product at 10^-6 M, 5.10^-8 M dexamethasone, rat thymocytes, 37° C., 3 hours
[6] = product at 10^-7 M, 5.10^-8 M dexamethasone, rat thymocytes, 37° C., 3 hours
[7] = product at 10^-8 M, 5.10^-8 M dexamethasone, rat thymocytes, 37° C., 3 hours

SMILES	relative liaison affinity (RLA), Progestogen receptor ([1]; Incubation time 2 H at 0° C.)	relative liaison affinity (RLA), Progestogen receptor ([1]; Incubation time 24 H at 0° C.)	activity for the progestogen receptor (in words) [1]	relative liaison affinity (RLA), Glucocorticoid receptor ([2]; Incubation time 4 H at 0° C.)	relative liaison affinity (RLA), Glucocorticoid receptor ([2]; Incubation time 24 H at 0° C.)	affinity for the glucocorticoid receptors (in words) [2]	effect on dexamethasone-induced diminution in the incorporation of tritiated uridine (in words) [3, 4]	inhibition at 1 µM [3, 5]	inhibition at 0.1 µM [3, 6]	inhibition at 0.01 µM [3, 7]	inhibition at 0.01 µM ([3]; Rattus norvegicus, 3 h)	inhibition at 0.1 µM ([3]; Rattus norvegicus, 3 h)	inhibition at 1 µM ([3]; Rattus norvegicus, 3 h)	incorporation of tritiated uridine (in words) ([3]; rat thymocytes, dexamethasone)
CC#C[C@]1(O)CC[C@H]2[C@@H]3CCC4=CC(=O)CC[C@]4(Cc4ccccc4)C3=CC[C@@]21C [Example 1, 10β-benzyl-17α-(prop-1-ynyl)-Δ^4,9(11) -estradien-17β-ol-3-one]	0.1	0.1	negligible activity	160	57	very marked affinity	oppose this effect	80%	55%	20%				
CC#C[C@]1(O)CC[C@H]2[C@@H]3CCC4=CC(=O)CC[C@]4(Cc4ccc(C)cc4)C3=CC[C@@]21C [Example 4, 10β-[4-methyl-benzyl]-17α-(prop-1-ynyl)-Δ^4,9(11) -estradiene-17β-ol-3-one]			negligible activity				oppose this effect				10%	30%	83%	
C=C(C)C[C@]12CCC(=O)C=C1CC[C@@H]1C2=CC[C@@]2(C)[C@H]1CC[C@@]2(O)C#CC [Example 7, 10β-(2-methyl-prop-2-en-1-yl)-17α-(prop-1-ynyl)-Δ^4,9(11) -estradien 17β-ol-3-one]	0.4	0.1	negligible activity	226	112	very marked affinity	oppose this effect	65%	16%	10%				
CC#C[C@]1(O)CC[C@H]2[C@@H]3CCC4=CC(=O)CC[C@]4(Sc4ccc(OC)cc4)C3=CC[C@@]21C [Example 10, 10β-[(4-methoxyphenyl)-thio]-17α-(prop-1-ynyl)-Δ^4,9(11) -estradien-17β-ol-3-one]	0.9	0.5	negligible activity	218	152	very marked affinity	oppose this effect							
CC#C[C@]1(O)CC[C@H]2[C@@H]3CCC4=CC(=O)CC[C@]4(Cc4ccccc4F)C3=CC[C@@]21C [Example 12, 10β-[2-fluorobenzyl]-17α-(prop-1-ynyl)-Δ^4,9(11) -estradien-17β-ol-3-one]	0.1	0.1	negligible activity	136	45	very marked affinity	oppose this effect	67%	12%	6%				
C[C@@H]1C[C@H]2[C@@H]3CCC4=CC(=O)C=C[C@]4(C)[C@@]3(F)[C@@H](O)C[C@]2(C)[C@@]1(O)C(=O)CO [dexamethasone, reference compound]														diminution in the incorporation of tritiated uridine
